# Measurements from patent US11034663B2, “Tetrahydronaphtho[1,2-b]furan-2(3H)-one derivatives and preparation and uses thereof” (SHANGHAI QINGDONG BIOTECHNOLOGY CO., LTD., priority 2017, dated 2021).
# Entries after “also recorded” stand apart in the source; their conditions may differ.
# Tested on: adjuvant-induced arthritis in rats
# Test: Therapeutic effect on adjuvant-induced arthritis in rats
# Type: in vivo, Wistar male rats
# Protocol: Wistar male rats, weighing 160-180 g, were raised in the SPF animal room of Shanghai University of Traditional Chinese Medicine, and employed for experiment following at least one week of culture, where the culture was performed at a temperature of 22+1° C. and a humidity of 55±5% under a 12-h light-dark cycle. The feed and water were sterilized and then freely taken by rats. All experiments were carried out in strict accordance with the relevant regulations for experimental animals.
# Bacille Calmette-Guerin (BCG) H37Ra was purchased from Difco Co., Ltd. (US); and the YSL-7A Plethysmometer (paw volume) Meter was produced by the equipment station of Shandong Academy of Medical Sciences.
# The establishment of the adjuvant-induced arthritis rat model and the administration therefor were described performed as follows. Liquid paraffin was sterilized at high temperature and pressure, added with a 10 mg/mL aqueous BCG solution and emulsified under repeated suction to produce a Freund's complete adjuvant (CFA) emulsion. In the experiment, individual rats were sensitized by intradermal injection of 0.1 mL of the CFA emulsion at the left hind paw to induce adjuvant arthritis in the limbs.
# The grouping and administration were performed as follows. The male wistar rats were randomly divided into four groups according to weight each for 10 rats.
# The rats in the blank control group were treated with 0.3% CMC solution daily by intragastric administration.
# The rats in the arthritis solvent control group were similarly treated with 0.3% CMC solution daily by intragastric administration.
# Rats from the two administration groups were respectively treated with 5 mg/kg and 20 mg/kg of compound 59 by oral administration once a day.
# In addition to the blank control group, the rats in the other three groups were sensitized individually by […] injection of 0.1 mL of an adjuvant containing 10 mg/mL inactivated bacillus strain at the left hind foot pad. From the 10th day after the occurrence of arthritis, the rats in the administration groups were orally administered for therapeutic pharmacodynamic observation.
# The therapeutic effect was monitored as follows. The rats were observed every day for the development of arthritis symptoms and weighed once every 2-3 days. A 5-level standard scoring system based on the clinical disease index was employed to evaluate the inflammation, where “0”: no redness and swelling; “1”: redness and swelling at the small toe joints; “2”: swelling at the toe joints and toes; “3”: swelling at feet below the ankle joint; and “4”: swelling at the entire feet including ankle joint. The two hind feet were measured for the volume to evaluate the swelling degree.
smiles,measurement,setting,value
"Cc1cc(OCc2ccccc2Br)c(C)c2c1CC[C@H]1C(CN(C)C)C(=O)O[C@@H]21 (mixture of isomers) [Compound 59, (3R/S,3aS,9bR)-8-(2-bromobenzyloxy)-3-dimethylaminomethyl-6,9-dimethyl-3a, 4,5,9b-tetrahydronaphtho [1,2-b]furan-2(3H)-one]",effect on weight of rats with adjuvant-induced arthritis,"5 mg/kg and 20 mg/kg, oral, once a day, from the 10th day after occurrence of arthritis, FIG. 1",showed similar effect on the weight; also recorded: no significant effect on the weight loss
same,"disease index of arthritis (clinical disease index, 0-4 score)","5 mg/kg and 20 mg/kg, oral, once a day, compared to the model group, P<0.05, FIG. 2",significantly lowered
same,"secondary foot lesions (foot swelling, opposite side)","5 mg/kg and 20 mg/kg, oral, once a day, compared to the model group, P<0.05, FIG. 3",significantly inhibited; also recorded: alleviating
same,"primary foot lesions (foot swelling, sensitization side)","5 mg/kg and 20 mg/kg, oral, once a day, compared to the model group, P<0.05, FIG. 4",significantly inhibited; also recorded: alleviating
same,overall therapeutic effect on adjuvant-induced arthritis in rats,daily oral administration,remarkable therapeutic effect
